The compounds below were run against T1, recombinant human 11 β-HSD1 (Homo sapiens, UniProt P28845) (assay: 11 β-HSD1 SPA Assay (Scintillation Proximity Assay)).
T1 construct: made in house; host or cells: E. coli
T1 sequence (P28845 whole entry): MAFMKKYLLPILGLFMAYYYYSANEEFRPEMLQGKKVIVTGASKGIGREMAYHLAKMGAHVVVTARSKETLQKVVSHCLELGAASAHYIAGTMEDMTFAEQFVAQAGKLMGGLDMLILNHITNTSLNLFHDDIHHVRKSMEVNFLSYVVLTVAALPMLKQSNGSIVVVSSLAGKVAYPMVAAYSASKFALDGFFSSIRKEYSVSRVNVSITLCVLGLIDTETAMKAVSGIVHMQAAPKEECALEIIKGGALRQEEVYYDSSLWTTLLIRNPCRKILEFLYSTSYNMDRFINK
Format: biochemical
Procedure, shortened: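 Scintillation proximity read-out of cortisol formed from 40 nM [3H]cortisone by purified recombinant human enzyme (30-100 nM, E. coli) with 1 mM NADPH, pH7.4, 2 hours at room temperature; beads with cortisol antibody and glycyrrhetinic acid stop the reaction, read next day. IC50 derived from inhibition normalised to background and maximal wells.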
`CC(C)(CO)NC(=O)c1ccc(N2[C@@H]3CC[C@H]2C[C@@H](NC(=O)C(C)(C)Oc2ccc(Cl)cc2Cl)C3)nc1` [Example 395, 6-(3-endo-{[2-(2,4-dichlorophenoxy)-2-methylpropanoyl]amino}-8-azabicyclo[3.2.1]oct-8-yl)-N-(1-hydroxy-2-methylpropan-2-yl)pyridine-3-carboxamide] was tested, and the IC50 was < 200 nM.
In the case of `CC(C)(O)CNC(=O)c1ccc(N2[C@@H]3CC[C@H]2C[C@@H](NC(=O)C(C)(C)Oc2ccc(Cl)cc2Cl)C3)nc1` [Example 396, 6-(3-endo-{[2-(2,4-dichlorophenoxy)-2-methylpropanoyl]amino}-8-azabicyclo[3.2.1]oct-8-yl)-n-(2-hydroxy-2-methylpropyl)pyridine-3-carboxamide], the IC50 is reported as < 200 nM.
In the case of `C[C@@H](CO)NC(=O)c1ccc(N2C3CCC2CC(NC(=O)C(C)(C)Oc2ccc(Cl)cc2Cl)C3)nc1` (stereo partly drawn) [Example 397, 6-(3-endo-{[2-(2,4-dichlorophenoxy)-2-methylpropanoyl]amino}-8-azabicyclo[3.2.1]oct-8-yl)-N-[(2S)-1-hydroxypropan-2-yl]pyridine-3-carboxamide], the IC50 is reported as < 200 nM.
`C[C@H](CO)NC(=O)c1ccc(N2C3CCC2CC(NC(=O)C(C)(C)Oc2ccc(Cl)cc2Cl)C3)nc1` (stereo partly drawn) [Example 398, 6-(3-endo-{[2-(2,4-dichlorophenoxy)-2-methylpropanoyl]amino}-8-azabicyclo[3.2.1]oct-8-yl)-N-[(2R)-1-hydroxypropan-2-yl]pyridine-3-carboxamide] was tested, and the IC50 was < 200 nM.
`CC(C)(Oc1ncc(Cl)cc1Cl)C(=O)NC1CC2CCC(C1)N2c1ccc(C(=O)NC2CC2(F)F)cn1` (stereo not drawn) [Example 399, 6-(3-endo-(2-(3,5-dichloropyridin-2-yloxy)-2-methylpropanamido)-8-azabicyclo[3.2.1]octan-8-yl)-N-(2,2-difluorocyclopropyl) nicotinamide] was tested, and the IC50 was < 200 nM.
In the case of `CC(C)NC(=O)c1ccc(N2[C@@H]3CC[C@H]2C[C@@H](NC(=O)C(C)(C)Oc2ncc(Cl)cc2Cl)C3)nc1` [Example 400, 6-(3-endo-(2-(3,5-dichloropyridin-2-yloxy)-2-methylpropanamido)-8-azabicyclo[3.2.1]octan-8-yl)-N-isopropylnicotinamide], the IC50 is reported as < 200 nM.
With `CC(C)(Oc1ccc(Cl)cc1OC(F)(F)F)C(=O)N[C@H]1C[C@H]2CC[C@@H](C1)N2c1ccc(C(=O)NCC(F)F)cn1` [Example 401, 6-(3-endo-(2-(4-chloro-2-(trifluoromethoxy)phenoxy)-2-methylpropanamido)-8-azabicyclo[3.2.1]octan-8-yl)-N-(2,2-difluoroethyl)nicotinamide] the IC50 was < 200 nM.
In the case of `CC(C)(Oc1cc(OCCO)c(Cl)cc1Cl)C(=O)N[C@H]1C[C@H]2CC[C@@H](C1)N2c1ccc(C(=O)NCC(F)F)cn1` [Example 402, 6-(3-endo-(2-(2,4-dichloro-5-(2-hydroxyethoxy)phenoxy)-2-methylpropanamido)-8-azabicyclo[3.2.1]octan-8-yl)-N-(2,2-difluoroethyl)nicotinamide], the IC50 is reported as < 200 nM.
`CC(C)(Oc1ccc(Cl)cc1C(F)F)C(=O)N[C@H]1C[C@H]2CC[C@@H](C1)N2c1ccc(C(=O)NC2(CO)CC2)cn1` [Example 403, 6-(3-endo-(2-(4-chloro-2-(difluoromethyl)phenoxy)-2-methylpropanamido)-8-azabicyclo[3.2.1]octan-8-yl)-N-(1-(hydroxymethyl)cyclopropyl) nicotinamide] was tested, and the IC50 was < 200 nM.
`CC(C)(Oc1ccc(Cl)cc1C(F)F)C(=O)N[C@H]1C[C@H]2CC[C@@H](C1)N2c1ccc(C(=O)Nc2ccon2)cn1` [Example 404, 6-(3-endo-(2-(4-chloro-2-(difluoromethyl)phenoxy)-2-methylpropanamido)-8-azabicyclo[3.2.1]octan-8-yl)-N-(isoxazol-3-yl)nicotinamide] was tested, and the IC50 was < 200 nM.
For `CC(C)(Oc1cc(OCCN2CCCC2)c(Cl)cc1Cl)C(=O)N[C@H]1C[C@H]2CC[C@@H](C1)N2c1ccc(C(=O)NCC(F)(F)F)cn1` [Example 405, 6-(3-endo-(2-(2,4-dichloro-5-(2-(pyrrolidin-1-yl)ethoxy)phenoxy)-2-methylpropanamido)-8-azabicyclo[3.2.1]octan-8-yl)-N-(2,2,2-trifluoroethyl)nicotinamide], the IC50 was < 200 nM.
For `CN1CCN(CCOc2cc(OC(C)(C)C(=O)N[C@H]3C[C@H]4CC[C@@H](C3)N4c3ccc(C(=O)NCC(F)(F)F)cn3)c(Cl)cc2Cl)CC1` [Example 406, 6-(3-endo-(2-(2,4-dichloro-5-(2-(4-methylpiperazin-1-yl)ethoxy)phenoxy)-2-methylpropanamido)-8-azabicyclo[3.2.1]octan-8-yl)-N-(2,2,2-trifluoroethyl)nicotinamide], the IC50 was < 200 nM.
`CC(C)(Oc1cc(OCCN2CCOCC2)c(Cl)cc1Cl)C(=O)N[C@H]1C[C@H]2CC[C@@H](C1)N2c1ccc(C(=O)NCC(F)(F)F)cn1` [Example 407, 6-(3-endo-(2-(2,4-dichloro-5-(2-morpholinoethoxy)phenoxy)-2-methylpropanamido)-8-azabicyclo[3.2.1]octan-8-yl)-N-(2,2,2-trifluoroethyl)nicotinamide] was tested, and the IC50 was < 200 nM.
For `CC(C)(Oc1ncc(Cl)cc1Cl)C(=O)N[C@H]1C[C@H]2CC[C@@H](C1)N2c1ccc(C(=O)NCC(F)F)cn1` [Example 408, 6-(3-endo-(2-(3,5-dichloropyridin-2-yloxy)-2-methylpropanamido)-8-azabicyclo[3.2.1]octan-8-yl)-N-(2,2-difluoroethyl)nicotinamide], the IC50 was < 200 nM.
For `CC(C)(Oc1ncc(Cl)cc1F)C(=O)N[C@H]1C[C@H]2CC[C@@H](C1)N2c1ccc(C(=O)NCC(F)F)cn1` [Example 409, 6-(3-endo-(2-(5-chloro-3-fluoropyridin-2-yloxy)-2-methylpropanamido)-8-azabicyclo[3.2.1]octan-8-yl)-N-(2,2-difluoroethyl)nicotinamide], the IC50 was < 200 nM.
With `C[C@H](NC(=O)c1ccc(N2C3CCC2CC(NC(=O)C(C)(C)Oc2ccc(Cl)cc2OC(F)(F)F)C3)nc1)C(F)(F)F` (stereo partly drawn) [Example 410, 6-(3-endo-(2-(4-chloro-2-(trifluoromethoxy)phenoxy)-2-methylpropanamido)-8-azabicyclo[3.2.1]octan-8-yl)-N-((S)-1,1,1-trifluoropropan-2-yl)nicotinamide] the IC50 was < 200 nM.
For `C[C@@H](NC(=O)c1ccc(N2C3CCC2CC(NC(=O)C(C)(C)Oc2ccc(Cl)cc2C(F)F)C3)nc1)C(F)(F)F` (stereo partly drawn) [Example 411, 6-(3-endo-(2-(4-chloro-2-(difluoromethyl)phenoxy)-2-methylpropanamido)-8-azabicyclo[3.2.1]octan-8-yl)-N-((R)-1,1,1-trifluoropropan-2-yl)nicotinamide], the IC50 was < 200 nM.
In the case of `C[C@@H](NC(=O)c1ccc(N2C3CCC2CC(NC(=O)C(C)(C)Oc2ccc(Cl)cc2C(F)(F)F)C3)nc1)C(F)(F)F` (stereo partly drawn) [Example 412, 6-(3-endo-(2-(4-chloro-2-(trifluoromethyl)phenoxy)-2-methylpropanamido)-8-azabicyclo[3.2.1]octan-8-yl)-N-((R)-1,1,1-trifluoropropan-2-yl)nicotinamide], the IC50 is reported as < 200 nM.
With `CC(C)(Oc1cc(OCC(=O)O)c(Cl)cc1Cl)C(=O)N[C@H]1C[C@H]2CC[C@@H](C1)N2c1ccc(C(=O)NCC(F)(F)F)cn1` [Example 413, 2-(2,4-dichloro-5-(2-methyl-1-oxo-1-(8-(5-(2,2,2-trifluoroethylcarbamoyl)pyridin-2-yl)-8-azabicyclo[3.2.1]octan-3-endo-ylamino)propan-2-yloxy)phenoxy)acetic acid] the IC50 was < 200 nM.
In the case of `CC(C)(Oc1cc(OC(C)(C)C(=O)N[C@H]2C[C@H]3CC[C@@H](C2)N3c2ccc(C(=O)NCC(F)(F)F)cn2)c(Cl)cc1Cl)C(=O)O` [Example 414, 2-(2,4-dichloro-5-(2-methyl-1-oxo-1-(8-(5-(2,2,2-trifluoroethylcarbamoyl)pyridin-2-yl)-8-azabicyclo[3.2.1]octan-3-endo-ylamino)propan-2-yloxy)phenoxy)-2-methylpropanoic acid], the IC50 is reported as < 2000 nM.
In the case of `C[C@@H](NC(=O)c1ccc(N2C3CCC2CC(NC(=O)C(C)(C)Oc2ccc(Cl)cc2OC(F)(F)F)C3)nc1)C(F)(F)F` (stereo partly drawn) [Example 415, 6-[3-endo-({2-[4-chloro-2-(trifluoromethoxy)phenoxy]-2-methylpropanoyl}amino)-8-azabicyclo[3.2.1]oct-8-yl]-N-[(2R)-1,1,1-trifluoropropan-2-yl]pyridine-3-carboxamide], the IC50 is reported as < 200 nM.
For `C[C@H](NC(=O)c1ccc(N2C3CCC2CC(NC(=O)C(C)(C)Oc2ccc(Cl)cc2C(F)(F)F)C3)nc1)C(F)(F)F` (stereo partly drawn) [Example 416, 6-[3-endo-({2-[4-chloro-2-(trifluoromethyl)phenoxy]-2-methylpropanoyl}amino)-8-azabicyclo[3.2.1]oct-8-yl]-N-[(2S)-1,1,1-trifluoropropan-2-yl]pyridine-3-carboxamide], the IC50 was < 200 nM.
With `C[C@H](NC(=O)c1ccc(N2C3CCC2CC(NC(=O)C(C)(C)Oc2ncc(Cl)cc2Cl)C3)nc1)C(F)(F)F` (stereo partly drawn) [Example 417, 6-[3-endo-({2-[(3,5-dichloropyridin-2-yl)oxy]-2-methylpropanoyl}amino)-8-azabicyclo[3.2.1]oct-8-yl]-N-[(2S)-1,1,1-trifluoropropan-2-yl]pyridine-3-carboxamide] the IC50 was < 200 nM.
`C[C@H](NC(=O)c1ccc(N2C3CCC2CC(NC(=O)C(C)(C)Oc2ccc(F)cc2C(F)F)C3)nc1)C(F)(F)F` (stereo partly drawn) [Example 418, 6-[3-endo-({2-[2-(difluoromethyl)-4-fluorophenoxy]-2-methylpropanoyl}amino)-8-azabicyclo[3.2.1]oct-8-yl]-N-[(2S)-1,1,1-trifluoropropan-2-yl]pyridine-3-carboxamide] was tested, and the IC50 was < 200 nM.
`C[C@H](NC(=O)c1ccc(N2C3CCC2CC(NC(=O)C(C)(C)Oc2ncc(Cl)cc2F)C3)nc1)C(F)(F)F` (stereo partly drawn) [Example 419, 6-[3-endo-({2-[(5-chloro-3-fluoropyridin-2-yl)oxy]-2-methylpropanoyl}amino)-8-azabicyclo[3.2.1]oct-8-yl]-N-[(2S)-1,1,1-trifluoropropan-2-yl]pyridine-3-carboxamide] was tested, and the IC50 was < 2000 nM.
